Results as given in the NIST ThermoML archive (doi:10.1021/je050010l).

What was measured:
[1] = refractive index (Na D-line) (dimensionless); xn = mol fraction of the nth substance listed; settings: 100.8 kPa, Liquid, Standard Abbe refractometry
[2] = xn = mol fraction of the nth substance listed; settings: 100.8 kPa, Liquid; for viscosity: Capillary tube (Ostwald / Ubbelohde) method

CC(C)=O [acetone] + CCO
Settings | mass density, 288.15 K [kg/m3] | mass density, 298.15 K [kg/m3] | mass density, 308.15 K [kg/m3] | refractive index, 288.15 K | refractive index, 298.15 K | refractive index, 308.15 K | viscosity, 288.15 K [mPa·s] | viscosity, 298.15 K [mPa·s] | viscosity, 308.15 K [mPa·s]
[1], x1 = 0.05 | – | – | – | 1.36354 | 1.35919 | 1.35486 | – | – | –
[1], x1 = 0.1 | – | – | – | 1.3636 | 1.35915 | 1.3547 | – | – | –
[1], x1 = 0.15 | – | – | – | 1.36366 | 1.35909 | 1.35454 | – | – | –
[1], x1 = 0.2 | – | – | – | 1.36361 | 1.35899 | 1.35435 | – | – | –
[1], x1 = 0.25 | – | – | – | 1.36357 | 1.35887 | 1.35414 | – | – | –
[1], x1 = 0.3 | – | – | – | 1.3635 | 1.35873 | 1.35391 | – | – | –
[1], x1 = 0.35 | – | – | – | 1.36343 | 1.35857 | 1.35369 | – | – | –
[1], x1 = 0.4 | – | – | – | 1.36334 | 1.35842 | 1.35346 | – | – | –
[1], x1 = 0.45 | – | – | – | 1.36324 | 1.35826 | 1.35324 | – | – | –
[1], x1 = 0.4999 | – | – | – | 1.36313 | 1.35809 | 1.353 | – | – | –
[1], x1 = 0.55 | – | – | – | 1.36301 | 1.3579 | 1.35276 | – | – | –
[1], x1 = 0.6 | – | – | – | 1.36289 | 1.35771 | 1.35251 | – | – | –
[1], x1 = 0.65 | – | – | – | 1.36275 | 1.35753 | 1.35228 | – | – | –
[1], x1 = 0.7 | – | – | – | 1.36261 | 1.35734 | 1.35203 | – | – | –
[1], x1 = 0.75 | – | – | – | 1.36246 | 1.35713 | 1.35177 | – | – | –
[1], x1 = 0.8 | – | – | – | 1.3623 | 1.35692 | 1.35152 | – | – | –
[1], x1 = 0.8501 | – | – | – | 1.36214 | 1.35673 | 1.35127 | – | – | –
[1], x1 = 0.9 | – | – | – | 1.36198 | 1.35651 | 1.35102 | – | – | –
[1], x1 = 0.95 | – | – | – | 1.36177 | 1.35629 | 1.3508 | – | – | –
[1], x1 = 1 | – | – | – | 1.36152 | 1.35605 | 1.35057 | – | – | –
[2], x1 = 0.05 | 794.4 | 785.59 | 776.66 | – | – | – | 1.126 | 0.944 | 0.793
[2], x1 = 0.1 | 794.86 | 785.84 | 776.66 | – | – | – | 0.985 | 0.829 | 0.703
[2], x1 = 0.15 | 795.23 | 786 | 776.61 | – | – | – | 0.873 | 0.741 | 0.632
[2], x1 = 0.2 | 795.5 | 786.08 | 776.53 | – | – | – | 0.783 | 0.669 | 0.575
[2], x1 = 0.25 | 795.75 | 786.16 | 776.41 | – | – | – | 0.709 | 0.61 | 0.527
[2], x1 = 0.3 | 795.99 | 786.23 | 776.28 | – | – | – | 0.649 | 0.561 | 0.487
[2], x1 = 0.35 | 796.18 | 786.24 | 776.12 | – | – | – | 0.598 | 0.521 | 0.453
[2], x1 = 0.4 | 796.34 | 786.23 | 775.96 | – | – | – | 0.556 | 0.486 | 0.426
[2], x1 = 0.45 | 796.46 | 786.21 | 775.79 | – | – | – | 0.518 | 0.457 | 0.403
[2], x1 = 0.4999 | 796.57 | 786.19 | 775.63 | – | – | – | 0.488 | 0.431 | 0.383
[2], x1 = 0.55 | 796.68 | 786.17 | 775.47 | – | – | – | 0.461 | 0.409 | 0.364
[2], x1 = 0.6 | 796.77 | 786.13 | 775.3 | – | – | – | 0.438 | 0.39 | 0.349
[2], x1 = 0.65 | 796.84 | 786.07 | 775.13 | – | – | – | 0.418 | 0.373 | 0.335
[2], x1 = 0.7 | 796.86 | 786 | 774.96 | – | – | – | 0.401 | 0.358 | 0.322
[2], x1 = 0.75 | 796.88 | 785.9 | 774.77 | – | – | – | 0.386 | 0.345 | 0.312
[2], x1 = 0.8 | 796.91 | 785.84 | 774.59 | – | – | – | 0.373 | 0.334 | 0.303
[2], x1 = 0.8501 | 796.9 | 785.73 | 774.4 | – | – | – | 0.363 | 0.325 | 0.295
[2], x1 = 0.9 | 796.92 | 785.66 | 774.23 | – | – | – | 0.353 | 0.317 | 0.288
[2], x1 = 0.95 | 796.91 | 785.57 | 774.08 | – | – | – | 0.344 | 0.309 | 0.281
[2], x1 = 1 | 796.87 | 785.47 | 773.91 | – | – | – | 0.334 | 0.302 | 0.274
